Experimental data from US7109170B2, “Region of factor IXa protease domain that interacts with factor VIIIa and methods therefor” (Saint Louis University, priority 1999, dated 2006).
Peptide text beside a SMILES is read from it.

Experiments:
[1] = biological target: T1, factor IXa (Homo sapiens, UniProt P00740); assay: Factor IX peptide competition assay in the absence of factor VIIIa; type: biochemical
T1 construct: heavy chain of factor IXa comprised of residues 181–415; light chain of factor IXa comprised of residues 1–145
Procedure: Each reaction mixture contained 20 nM of factor IXa, 100 nM of factor X, various concentrations of peptide, 25 μM of phospholipid, and 5 mM CaCl2 in TBS/BSA. The reaction mixtures were incubated for 2.5, 5, 10, 15, and 20 minutes at 37° C. and were stopped with the addition of 1.5 μL of 0.5 M EDTA and placed on ice. Forty μL of each reaction was 5 added to 100 μL of TBS/BSA in a 96 well microtiter plate and S-2222 was added to a final concentration of 100 μM.

[2] = from other studies; cited from earlier work
[3] = tested on: factor VIIIa; settings: from other studies; cited from earlier work

Molecule | inhibitory effect on factor IXa's ability to activate factor X [1] | activity of variant [2] | factor VIIIa binding / affinity of variant [3]
CC(C)C[C@H](N)C(=O)N[C@H](C(=O)N[C@@H](CC(=O)O)C(=O)N[C@@H](CCCNC(=N)N)C(=O)N[C@@H](C)C(=O)N[C@H](C(=O)O)[C@@H](C)O)C(C)C [Protein P-4351, LVDRAT] (H-LVDRAT-OH; N-terminus and C-terminus assumed) | no inhibitory effect |  | 
R338A: factor IX R338A mutant described by Chang and coworkers [Protein R338A] |  | slightly increased activity | without an impairment in factor VIIIa binding
